Biological target: Cyclin-dependent kinase 5 (Homo sapiens, UniProt Q00535)
Sequence (Q00535 whole entry): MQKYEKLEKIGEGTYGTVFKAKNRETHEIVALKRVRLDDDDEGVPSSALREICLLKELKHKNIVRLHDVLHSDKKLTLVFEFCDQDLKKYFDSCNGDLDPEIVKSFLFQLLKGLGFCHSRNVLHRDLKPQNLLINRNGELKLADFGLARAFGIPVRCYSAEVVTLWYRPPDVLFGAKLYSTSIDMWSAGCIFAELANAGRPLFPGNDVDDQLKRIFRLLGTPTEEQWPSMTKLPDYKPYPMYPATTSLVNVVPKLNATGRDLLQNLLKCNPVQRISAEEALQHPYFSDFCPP

| IC50 | SMILES |
| --- | --- |
| 25 µM | CCNc1cc(N[C@H]2CC[C@@H](O)CC2)nc(Nc2ccc3c(ccn3Cc3ccccc3)c2)n1 |
| 25 µM | CC1(C)CC2(C)Nc3cc(-c4ccc5c(c4)NC4(C)CC(C)(C)NC(=S)N54)ccc3N2C(=S)N1 (stereo unspecified) |
| 0.005 µM | COc1ccc(-c2[nH]nc3c2C(=O)c2c(NC(=O)NNC(=O)c4ccc(O)cc4)cccc2-3)cc1 |
| 0.005 µM | O=C(Nc1cc(C2CCC2)c[nH]1)Nc1cccc2ccncc12 |

Biological target: Cyclin-dependent kinase 2/cyclin A (Homo sapiens, UniProt P24941)
Format: protein-complex assay
Description: Inhibition of CDK2/cyclin A

| SMILES | IC50 |
| --- | --- |
| CC(=O)N[C@@H](CCCN=C(N)N)C(=O)N[C@@H](CCCN=C(N)N)C(=O)N[C@@H](CC(C)C)C(=O)N[C@@H](CC(N)=O)C(=O)N[C@@H](Cc1ccccc1)C(N)=O | > 50 µM |

Biological target: Cyclin-dependent kinase 4 (Homo sapiens, UniProt P11802)
Sequence (P11802 whole entry): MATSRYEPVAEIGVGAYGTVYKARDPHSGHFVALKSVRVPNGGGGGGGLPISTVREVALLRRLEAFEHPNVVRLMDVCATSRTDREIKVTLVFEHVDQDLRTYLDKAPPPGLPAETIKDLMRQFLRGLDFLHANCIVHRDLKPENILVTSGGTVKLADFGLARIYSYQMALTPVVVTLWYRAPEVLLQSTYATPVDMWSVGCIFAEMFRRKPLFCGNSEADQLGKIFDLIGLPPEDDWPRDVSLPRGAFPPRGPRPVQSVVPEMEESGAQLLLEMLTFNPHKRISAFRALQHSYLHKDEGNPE

| SMILES | IC50 |
| --- | --- |
| O=C1Cc2c([nH]c3ccc([N+](=O)[O-])cc23)-c2ccccc2N1 [ALSTERPAULLONE] | > 10 µM |
| CC(C)(C)Nc1nc(C(F)(F)F)nc2ccc(Nc3ccccc3)cc12 | > 2.1 µM |
| Cc1ccc(F)c(Nc2nccc(-c3ccc(S(N)(=O)=O)cc3)n2)c1 | 0.15 µM |
| CN(C)CCNS(=O)(=O)c1ccc(Nc2cccc(-c3cnc4ccccn34)c2)cc1 | 0.26 µM |
| Nc1nc2ccc(C(=O)c3c(F)cccc3Cl)cc2n1Cc1c(F)cccc1F | 0.81 µM |
| O=C(Cc1ccc2ccccc2c1)Nc1cc(C2CC2)n[nH]1 | > 10 µM |
| O=C1C(c2c(O)[nH]c3ccc(S(=O)(=O)O)cc23)=Nc2ccccc21 | 0.2 µM |

Next, values leading:

| IC50 | SMILES |
| --- | --- |
| 2.7 µM | CCCCOc1c(C(=O)c2c(F)cc(C)cc2F)ccc2[nH]ncc12 |
| 0.23 µM | Nc1nc(N)c(N=O)c(=O)[nH]1 |
| 0.002 µM | O=C(Nc1ccccn1)Nc1cccc2c1[C@H]1CCCN1C2=O |

Biological target: Cyclin-dependent kinase 6 (Homo sapiens, UniProt Q00534)
Sequence (Q00534 whole entry): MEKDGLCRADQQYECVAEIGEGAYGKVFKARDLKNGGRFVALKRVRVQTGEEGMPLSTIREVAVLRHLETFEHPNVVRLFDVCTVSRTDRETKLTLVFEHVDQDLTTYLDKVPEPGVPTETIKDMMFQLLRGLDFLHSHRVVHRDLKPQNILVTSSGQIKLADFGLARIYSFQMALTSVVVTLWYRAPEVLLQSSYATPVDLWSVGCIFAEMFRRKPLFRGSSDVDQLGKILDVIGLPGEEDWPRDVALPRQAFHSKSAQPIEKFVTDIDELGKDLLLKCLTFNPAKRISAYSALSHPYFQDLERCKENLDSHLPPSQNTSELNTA

| IC50 | SMILES |
| --- | --- |
| 5.6 µM | CCNc1cc(N[C@H]2CC[C@@H](O)CC2)nc(Nc2ccc3c(ccn3Cc3ccccc3)c2)n1 |
